Source: patent US4962109A, “Insecticidally and acaricidally active pyrimidine esters and intermediates therefor” (Imperial Chemical Industries PLC, priority 1985, dated 1990)
Read-outs that look alike come from different tables or passages of the source.

What was measured:
Format in all cases: in vivo
[1] = system: Spodoptera exigua (lesser army worm - larvae); assay: Residual test on lesser army worm larvae (SP), Cotton leaf, mortality; conditions: 48 h, 500 ppm, residual, read-out: SP grading of mortality
How it was run: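 Product dissolved in acetone and diluted in water with 0.01% wetting agent to 500, 250 or 100 ppm; larvae and/or cotton leaf host treated. Mortality or knockdown scored one to three days later and graded A (80-100%), B (50-79%) or C (<50%).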

[2] = system: Diabrotica balteata (rootworm larvae); assay: Residual test on rootworm larvae (DB), Filter paper/maize seed, mortality; conditions: 48 h, 500 ppm, residual, read-out: DB grading of mortality
How it was run: (§1)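 Graded read-out: A 80-100%, B 50-79%, C below 50% mortality or knockdown, assessed usually 1-3 days post-treatment. Liquid preparations at 500, 250 or 100 ppm by weight, from acetone solution diluted in water with 0.01% wetting agent, applied to pests and/or their host plant or food medium.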

[3] = system: Heliothis virescens (tobacco budworm - larvae); assay: Residual test on tobacco budworm larvae (HV), Cotton leaf, mortality; conditions: 48 h, read-out: HV grading of mortality
How it was run: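 Product in acetone diluted with water containing 0.01% Lissapol NX, at 500, 250 or 100 ppm; pests and/or host medium (here cotton leaf) treated. Mortality scored one to three days later, graded A (80-100%), B (50-79%), C (<50%).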

[4] = system: Tetranychus urticae (spider mites - ova); assay: Contact test on spider mites - ova (TUe), French bean leaf, mortality; conditions: 144 h, 500 ppm, contact, 6 days, read-out: TUe grading of mortality
How it was run: as §1

[5] = system: Nephotettix cincticeps (green leaf hopper - nymphs); assay: Contact test on green leaf hopper nymphs (NC), Rice plant, mortality; conditions: 500 ppm, contact, read-out: NC grading of mortality
How it was run: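 Product dissolved in acetone, diluted in water with 0.01% wetting agent to 500, 250 or 100 ppm; nymphs and/or host rice plants treated. Mortality or knockdown assessed 1–3 days later, graded A (80-100%), B (50-79%), C (<50%).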

[6] = system: Tetranychus urticae (spider mites - adult); assay: Contact test on spider mites - adult (TUa), French bean leaf, mortality; conditions: 72 h, 500 ppm, contact, 3 days, read-out: TUa grading of mortality
How it was run: as §1

[7] = system: Musca domestica (houseflies - adults); assay: Knockdown test on houseflies - adults (MD/KD), Cotton wool/sugar; conditions: 500 ppm, 4 hours, read-out: MD/KD grading of knockdown
How it was run: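 Adult houseflies exposed to the compound at 500, 250 or 100 ppm in acetone/water with 0.01% wetting agent, on a cotton wool/sugar medium. Knockdown and mortality assessed, graded A (80-100%), B (50-79%) or C (<50%).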

[8] = system: Myzus persicae (aphids); assay: Contact test on aphids (MP), Chinese Cabbage leaf, mortality; conditions: 72 h, 500 ppm, contact, 3 days, read-out: MP grading of mortality
How it was run: as §1

[9] = system: Musca domestica (houseflies - adults); assay: Contact test on houseflies - adults (MD), Cotton wool/sugar, mortality; conditions: 500 ppm, contact, read-out: MD grading of mortality
How it was run: as §1

[10] = system: Blattella germanica (cockroach nymphs); assay: Residual test on cockroach nymphs (BG/R), Plastic pot, mortality; conditions: 72 h, 3 days, read-out: BG/R grading of mortality
Description: The activity of the Product was determined using a variety of insect pests. The Product was used in the form of liquid preparations containing 500, 250 or 100 parts per million (ppm) by weight of the Product. The preparations were made by dissolving the Product in acetone and diluting the solutions with water containing 0.01% by weight of a wetting agent sold under the trade name "LISSAPOL" NX until the liquid preparations contained the required concentration of the Product. "Lissapol" is a Registered Trade Mark.
The test procedure adopted with regard to each pest was basically the same and comprised supporting a number of the pests on a medium which was usually a host plant or a foodstuff on which the pests feed, and treating either or both the pests and the medium with the preparations. The mortality of the pests was then assessed at periods usually varying from one to three days after the treatment.
The results of the tests are given in Table III for each of the Products, at the rate in parts per million given in the second column as a grading of mortality designated as A, B or C wherein A indicates 80-100% mortality or knockdown, B indicates 50-79% mortality or knockdown and C indicates less than 50% mortality or knockdown.
BG/R Blattella germanica

[11] = 72 h, * test duration of 3 days
[12] = 24 h, ** test duration of 1 day

| Compound | mortality at 500 ppm ([1]; * test duration of 3 days) [%] | mortality at 500 ppm ([2]; * test duration of 3 days) [%] | mortality at 500 ppm [3] [%] | mortality at 500 ppm [4] [%] | mortality at 500 ppm [5, 11] [%] | mortality at 500 ppm [6] [%] | pest or weed control at 500 ppm [7] [%] | mortality at 500 ppm [8] [%] | mortality at 500 ppm [9, 12] [%] | mortality at 500 ppm [10] [%] | mortality at 500 ppm ([1]; 2 days) [%] | mortality at 500 ppm ([2]; 2 days) [%] | mortality at 500 ppm ([5]; 48 h, 2 days) [%] | mortality at 500 ppm ([9]; 72 h, 3 days) [%] |
| --- | --- | --- | --- | --- | --- | --- | --- | --- | --- | --- | --- | --- | --- | --- |
| Cc1c(F)c(F)c(COC(=O)C(c2cnc(C(C)(C)C)nc2)C(C)(C)C)c(F)c1F (racemic) [Compound 4, 2,3,5,6-tetrafluoro-4-methylbenzyl (RS)-2-[2-(1,1-dimethylethyl)pyrimidin-5-yl]-3,3-dimethylbutanoate] | 80 to 100 | 80 to 100 | 80 to 100 | < 50 | 80 to 100 | 80 to 100 | 80 to 100 | 80 to 100 | 80 to 100 | 50 to 79 | – | – | – | – |
| COCc1c(F)c(F)c(COC(=O)C(c2cnc(C(C)(C)C)nc2)C2CC2)c(OC)c1F (racemic) [Compound 92, 3,5,6-trifluoro-2-methoxy-4-(methoxymethyl)benzyl (RS)-2-[2-(1,1-dimethylethyl)pyrimidin-5-yl]-2-cyclopropylacetate] | 80 to 100 | < 50 | 80 to 100 | < 50 | 80 to 100 | 80 to 100 | 80 to 100 | 80 to 100 | 80 to 100 | < 50 | – | – | – | – |
| C=CCc1c(F)c(F)c(COC(=O)C(c2cnc(C)nc2)C(C)C)c(F)c1F (racemic) [Compound 119] | 80 to 100 | 80 to 100 | < 50 | < 50 | 80 to 100 | 80 to 100 | 80 to 100 | 80 to 100 | 80 to 100 | 80 to 100 | – | – | – | – |
| COCc1c(F)c(F)c(COC(=O)C(c2cnc(C)nc2)C(C)C)c(F)c1F (racemic) [Compound 214, 4-(methoxymethyl)-2,3,5,6-tetrafluoroenzyl (RS)-2-(2-methylpyrimidin-5-yl)-3-methylbutanoate] | 80 to 100 | < 50 | < 50 | < 50 | 80 to 100 | 80 to 100 | 80 to 100 | 80 to 100 | 50 to 79 | 80 to 100 | – | – | – | – |
| CC(C)(C)c1ncc(C(C(=O)OCc2c(F)c(F)c(Cc3ccccc3)c(F)c2F)C(C)(C)C)cn1 (racemic) [Compound 17, 4-benzyl-2,3,5,6-tetrafluorobenzyl (RS)-2-[2-(1,1-dimethylethyl)pyrimidin-5-yl]-3,3-dimethylbutanoate] | – | – | < 50 | < 50 | – | 50 to 79 | < 50 | < 50 | – | < 50 | < 50 | 80 to 100 | < 50 | < 50 |
| COCc1c(F)c(F)c(COC(=O)C(c2cnc(C)nc2)C(C)(C)C)c(F)c1F (racemic) [Compound 120, 2,3,5,6-tetrafluoro-4-(methoxymethyl)-benzyl (RS)-2-(2-methylpyrimidin-5-yl)-3,3-dimethylbutanoate] | – | – | 80 to 100 | < 50 | – | 80 to 100 | 80 to 100 | 80 to 100 | – | < 50 | 80 to 100 | < 50 | 80 to 100 | 80 to 100 |
| CC(C)(C)c1ncc(C(C(=O)OCc2ccc(F)c(Oc3ccccc3)c2)C2CC2)cn1 (racemic) [Compound 125, 4-fluoro-3-phenoxybenzyl (RS)-2-[2-(1,1-dimethylethyl)pyrimidin-5-yl]-2cyclopropylacetate] | 80 to 100 | 80 to 100 | 80 to 100 | < 50 | 80 to 100 | 80 to 100 | 50 to 79 | 80 to 100 | 50 to 79 | < 50 | – | – | – | – |
| COCc1c(F)c(F)c(COC(=O)C(c2cnc(C(C)(C)C)nc2)C(C)(C)C)c(F)c1F (racemic) [Compound 15, 2,3,5,6-tetrafluoro-4-(methoxymethyl)benzyl (RS)-2-[2-(1,1-dimethylethyl)pyrimidin-5-yl]-3,3-dimethylbutanoate] | 80 to 100 | 80 to 100 | 80 to 100 | 80 to 100 | 80 to 100 | 80 to 100 | 80 to 100 | 80 to 100 | 80 to 100 | 50 to 79 | – | – | – | – |
| C#CCc1c(F)c(F)c(COC(=O)C(c2cnc(C(F)(F)F)nc2)C(C)C)c(F)c1F (racemic) [Compound 87, 2,3,5,6-tetrafluoro-4-(prop-2-yn-1-yl)benzyl (RS)-2-(2-trifluoromethylpyrimidin-5-yl)-3-methylbutanoate] | 80 to 100 | 80 to 100 | 50 to 79 | 80 to 100 | 50 to 79 | 80 to 100 | 80 to 100 | 80 to 100 | 80 to 100 | 80 to 100 | – | – | – | – |
| COCc1c(F)c(F)c(COC(=O)C(c2cnc(C(C)(C)C)nc2)C(C)(C)C)c(OC)c1F (racemic) [Compound 16, 2,3,5-trifluoro-6-methoxy-4-(methoxymethyl)benzyl (RS)-2-[2-(1,1-dimethylethyl)pyrimidin-5-yl]-3,3-dimethylbutanoate] | 80 to 100 | < 50 | 80 to 100 | 80 to 100 | – | < 50 | 80 to 100 | 80 to 100 | 80 to 100 | 50 to 79 | – | – | – | – |
| C=CCc1c(F)c(F)c(COC(=O)C(c2cnc(C(F)(F)F)nc2)C(C)C)c(F)c1F (racemic) [Compound 114, 2,3,5,6-tetrafluoro-4-(prop-2-en-1-yl)benzyl (RS)-2-(2-trifluoromethylpyrimidin-5-yl)-3-methylbutanoate] | 80 to 100 | 80 to 100 | 80 to 100 | 80 to 100 | 80 to 100 | 80 to 100 | 80 to 100 | 80 to 100 | – | 80 to 100 | – | – | – | 80 to 100 |
| C[C@@H](OC(=O)[C@@H](c1cnc(C(C)(C)C)nc1)C1CC1)c1cccc(Oc2ccccc2)n1 (racemic) [Compound 90, (RS)-1-(6-phenoxypyrid-2-yl)ethyl (RS)-2-[2-(1,1-dimethylethyl)pyrimidin-5-yl]-2-cyclopropylacetate] | 80 to 100 | 80 to 100 | 80 to 100 | < 50 | 80 to 100 | 80 to 100 | 80 to 100 | 80 to 100 | 80 to 100 | 80 to 100 | – | – | – | – |
